Assay results as given in ChEMBL document CHEMBL5370585, “Exploration and Biological Evaluation of 1,3-Diamino-7H-pyrrol[3,2-f]quinazoline Derivatives as Dihydrofolate Reductase Inhibitors” (J Med Chem, 2023).
Converted amounts (≈) assume the structure as drawn. The source made the active and inactive calls. No cut-off for these calls is given here.

Columns and labels:
Staphylococcus aureus [1] = test: Antibacterial activity against Staphylococcus aureus ATCC 29213 incubated for 16 to 18 hrs by CLSI based broth dilution method; assay type: functional; conditions: time 16-18 hrs
Staphylococcus aureus [2] = test: Antibacterial activity against methicillin-resistant Staphylococcus aureus ATCC 43300 incubated for 16 to 18 hrs by CLSI based broth dilution method; assay type: functional; conditions: time 16-18 hrs
[3] = system: Staphylococcus epidermidis; test: Antibacterial activity against Staphylococcus epidermidis ATCC 12228 incubated for 16 to 18 hrs by CLSI based broth dilution method; assay type: functional; conditions: time 16-18 hrs
Acinetobacter baumannii [4] = test: Antibacterial activity against Acinetobacter baumannii ATCC 19606 incubated for 16 to 18 hrs by CLSI based broth dilution method; assay type: functional; conditions: time 16-18 hrs
Enterococcus faecalis [5] = test: Antibacterial activity against Enterococcus faecalis ATCC 29212 incubated for 16 to 18 hrs by CLSI based broth dilution method; assay type: functional; conditions: time 16-18 hrs
Escherichia coli [6] = test: Antibacterial activity against Escherichia coli ATCC 25922 incubated for 16 to 18 hrs by CLSI based broth dilution method; assay type: functional; conditions: time 16-18 hrs
Staphylococcus aureus [7] = test: Drug resistance against methicillin-resistant Staphylococcus aureus ATCC 43300 assessed as fold increase in MIC measured after 10 passaging for 24 hrs; assay type: functional
[8] = target: T1, Dihydrofolate reductase (Homo sapiens) (UniProt P00374); test: Inhibition of human DHFR at 1 uM incubated for 10 mins in presence of NADPH by colorimetry based analysis relative to control
T1 sequence (whole entry): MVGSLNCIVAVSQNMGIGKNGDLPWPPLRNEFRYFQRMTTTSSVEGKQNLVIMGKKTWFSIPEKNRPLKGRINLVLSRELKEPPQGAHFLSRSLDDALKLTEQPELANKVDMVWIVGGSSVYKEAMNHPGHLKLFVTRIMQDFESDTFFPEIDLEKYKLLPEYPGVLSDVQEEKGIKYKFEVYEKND

MCF7 = test: Cytotoxicity against human MCF7 cells measured after 72 hrs by MTT assay; assay type: functional, cell-based; conditions: MCF7, 72 h
HGC-27 = test: Cytotoxicity against human HGC-27 cells measured after 72 hrs by MTT assay; assay type: functional, cell-based; conditions: HGC-27, 72 h
HCT-116 = test: Cytotoxicity against human HCT-116 cells measured after 72 hrs by MTT assay; assay type: functional, cell-based; conditions: HCT-116, 72 h
HepG2 = test: Cytotoxicity against human HepG2 cells measured after 72 hrs by MTT assay; assay type: functional, cell-based; conditions: HepG2, 72 h
[9] = Toxicity in ICR mouse assessed as median lethal dose administered as single IP dose measured upto 8 days; conditions: in vivo, time < 8 day
Staphylococcus aureus [10] = test: Antibacterial activity against methicillin-sensitive Staphylococcus aureus 15-1 incubated for 16 to 18 hrs by CLSI based broth dilution method; assay type: functional; conditions: time 16-18 hrs
Staphylococcus aureus [11] = test: Antibacterial activity against methicillin-sensitive Staphylococcus aureus 15-2 incubated for 16 to 18 hrs by CLSI based broth dilution method; assay type: functional; conditions: time 16-18 hrs
Staphylococcus aureus [12] = test: Antibacterial activity against methicillin-sensitive Staphylococcus aureus ATCC 29213 incubated for 16 to 18 hrs by CLSI based broth dilution method; assay type: functional; conditions: time 16-18 hrs
Staphylococcus aureus [13] = test: Antibacterial activity against methicillin-sensitive Staphylococcus aureus ATCC 25923 incubated for 16 to 18 hrs by CLSI based broth dilution method; assay type: functional; conditions: time 16-18 hrs
Staphylococcus aureus [14] = test: Antibacterial activity against methicillin-resistant Staphylococcus aureus ATCC 33591 incubated for 16 to 18 hrs by CLSI based broth dilution method; assay type: functional; conditions: time 16-18 hrs
Staphylococcus aureus [15] = test: Antibacterial activity against vancomycin intermediate Staphylococcus aureus ATCC 700788 incubated for 16 to 18 hrs by CLSI based broth dilution method; assay type: functional; conditions: time 16-18 hrs
Staphylococcus aureus [16] = test: Antibacterial activity against vancomycin intermediate Staphylococcus aureus ATCC 700699 incubated for 16 to 18 hrs by CLSI based broth dilution method; assay type: functional; conditions: time 16-18 hrs
Enterococcus faecalis [17] = test: Antibacterial activity against Enterococcus faecalis EFA19-1 incubated for 16 to 18 hrs by CLSI based broth dilution method; assay type: functional; conditions: time 16-18 hrs
Enterococcus faecalis [18] = test: Antibacterial activity against Enterococcus faecalis EFA19-2 incubated for 16 to 18 hrs by CLSI based broth dilution method; assay type: functional; conditions: time 16-18 hrs
Enterococcus = test: Antibacterial activity against Vancomycin-resistant Enterococcus ATCC 51575 incubated for 16 to 18 hrs by CLSI based broth dilution method; assay type: functional; conditions: time 16-18 hrs
Escherichia coli [19] = test: Antibacterial activity against Escherichia coli ATCC BAA-2340 incubated for 16 to 18 hrs by CLSI based broth dilution method; assay type: functional; conditions: time 16-18 hrs
Escherichia coli [20] = test: Antibacterial activity against Escherichia coli ECO 15-1 incubated for 16 to 18 hrs by CLSI based broth dilution method; assay type: functional; conditions: time 16-18 hrs
Klebsiella pneumoniae [21] = test: Antibacterial activity against Klebsiella pneumoniae 15-1 assessed as reduction in microbial growth incubated for 16 to 18 hrs by CLSI based broth dilution method; assay type: functional; conditions: time 16-18 hrs
Klebsiella pneumoniae [22] = test: Antibacterial activity against Klebsiella pneumoniae ATCC 700603 assessed as reduction in microbial growth incubated for 16 to 18 hrs by CLSI based broth dilution method; assay type: functional; conditions: time 16-18 hrs
Acinetobacter baumannii [23] = test: Antibacterial activity against Acinetobacter baumannii ATCC 19606 assessed as reduction in microbial growth incubated for 16 to 18 hrs by CLSI based broth dilution method; assay type: functional; conditions: time 16-18 hrs
Acinetobacter baumannii [24] = test: Antibacterial activity against Acinetobacter baumannii 20-1 incubated for 16 to 18 hrs by CLSI based broth dilution method; assay type: functional; conditions: time 16-18 hrs
Acinetobacter baumannii [25] = test: Antibacterial activity against Acinetobacter baumannii 20-2 incubated for 16 to 18 hrs by CLSI based broth dilution method; assay type: functional; conditions: time 16-18 hrs
Pseudomonas aeruginosa = test: Antibacterial activity against Pseudomonas aeruginosa ATCC 27853 incubated for 16 to 18 hrs by CLSI based broth dilution method; assay type: functional; conditions: time 16-18 hrs
Staphylococcus aureus [26] = test: Antibacterial activity against Staphylococcus aureus ATCC 29213 incubated for 16 to 18 hrs in absence of human plasma by CLSI based broth dilution method; assay type: functional; conditions: time 16-18 hrs
Staphylococcus aureus [27] = test: Antibacterial activity against Staphylococcus aureus ATCC 29213 incubated for 16 to 18 hrs in presence of human plasma by CLSI based broth dilution method; assay type: functional; conditions: time 16-18 hrs
Staphylococcus aureus [28] = test: Antibacterial activity against methicillin-resistant Staphylococcus aureus ATCC 43300 incubated for 16 to 18 hrs in absence of human plasma by CLSI based broth dilution method; assay type: functional; conditions: time 16-18 hrs
Staphylococcus aureus [29] = test: Antibacterial activity against methicillin-resistant Staphylococcus aureus ATCC 43300 incubated for 16 to 18 hrs in presence of human plasma by CLSI based broth dilution method; assay type: functional; conditions: time 16-18 hrs
Escherichia coli [30] = test: Antibacterial activity against Escherichia coli ATCC 25922 incubated for 16 to 18 hrs in absence of human plasma by CLSI based broth dilution method; assay type: functional; conditions: time 16-18 hrs
Escherichia coli [31] = test: Antibacterial activity against Escherichia coli ATCC 25922 incubated for 16 to 18 hrs in presence of human plasma by CLSI based broth dilution method; assay type: functional; conditions: time 16-18 hrs
Staphylococcus aureus [32] = test: Antibacterial activity against Methicillin-resistant Staphylococcus aureus ATCC 43300 infected in ip dosed ICR mouse thigh infection model assessed as reduction in bacterial growth measured after 24 hrs post-treatment; assay type: functional, organism-based; conditions: dose lower 7.5 mg/kg, dose upper […]

SMILES | MIC (Staphylococcus aureus [1]) [µg/mL] | MIC (Staphylococcus aureus [2]) [µg/mL] | MIC [3] [µg/mL] | MIC (Acinetobacter baumannii [4]) [µg/mL] | MIC (Enterococcus faecalis [5]) [µg/mL] | MIC (Escherichia coli [6]) [µg/mL] | inhibition [8] [%] | IC50 (MCF7) [nM] | IC50 (HGC-27) [nM] | IC50 (HCT-116) [nM] | IC50 (HepG2) [nM] | LD50 at 192 h [9] [mg/kg] | MIC (Staphylococcus aureus [10]) [µg/mL] | MIC (Staphylococcus aureus [11]) [µg/mL] | MIC (Staphylococcus aureus [12]) [µg/mL] | MIC (Staphylococcus aureus [13]) [µg/mL] | MIC (Staphylococcus aureus [14]) [µg/mL] | MIC (Staphylococcus aureus [15]) [µg/mL] | MIC (Staphylococcus aureus [16]) [µg/mL] | MIC (Enterococcus faecalis [17]) [µg/mL] | further results
Nc1nc(N)c2c(ccc3c2ccn3Cc2ccc(-c3ccccc3)cc2)n1 | 1 (≈ 2.74 µM) | 0.5 (≈ 1.37 µM) | ≤ 0.004 | > 32 | 0.25 (≈ 0.684 µM) | > 128 | 54.8 | 580 | 85 | 32 | 530 | 154 | – | – | – | – | – | – | – | – | fold change (FC) (Staphylococcus aureus [7]): 8
COc1cc(Cc2cnc(N)nc2N)cc(OC)c1OC [TRIMETHOPRIM] | 1 (≈ 3.44 µM) | 0.5 (≈ 1.72 µM) | ≤ 0.004 | 16 (≈ 55.1 µM) | 0.5 (≈ 1.72 µM) | 0.5 (≈ 1.72 µM) | – | – | – | – | – | > 800 | 0.5 (≈ 1.72 µM) | 0.25 (≈ 0.861 µM) | 1 (≈ 3.44 µM) | 1 (≈ 3.44 µM) | 1 (≈ 3.44 µM) | 0.5 (≈ 1.72 µM) | 1 (≈ 3.44 µM) | 0.25 (≈ 0.861 µM) | MIC (Enterococcus faecalis [18]): 0.5 µg/mL (≈ 1.72 µM); MIC (Enterococcus): ≤ 0.03 µg/mL; MIC (Escherichia coli [19]): 64 µg/mL (≈ 220 µM); MIC (Escherichia coli [20]): > 64 µg/mL; MIC (Klebsiella pneumoniae [21]): 8 µg/mL; MIC (Klebsiella pneumoniae [22]): 4 µg/mL; MIC (Acinetobacter baumannii [23]): 16 µg/mL; MIC (Acinetobacter baumannii [24]): > 64 µg/mL; MIC (Acinetobacter baumannii [25]): 16 µg/mL (≈ 55.1 µM); MIC (Pseudomonas aeruginosa): > 64 µg/mL; MIC (Staphylococcus aureus [26]): 1 µg/mL (≈ 3.44 µM); MIC (Staphylococcus aureus [27]): 1 µg/mL; MIC (Staphylococcus aureus [28]): 0.5 µg/mL (≈ 1.72 µM); MIC (Staphylococcus aureus [29]): 0.5 µg/mL; MIC (Escherichia coli [30]): 0.5 µg/mL (≈ 1.72 µM); MIC (Escherichia coli [31]): 0.5 µg/mL; Activity (Staphylococcus aureus [32]): Active
Nc1nc(N)c2c(ccc3c2ccn3Cc2ccc3ocnc3c2)n1 | 8 (≈ 24.2 µM) | 2 (≈ 6.05 µM) | ≤ 0.004 | > 32 | 4 (≈ 12.1 µM) | 2 (≈ 6.05 µM) | 29.1 | 5870 | 3540 | > 10000 | 3650 | – | – | – | – | – | – | – | – | – | –
Nc1nc(N)c2c(ccc3c2ccn3Cc2ccc(C(=O)O)c3ccccc23)n1 | 2 (≈ 5.22 µM) | 2 (≈ 5.22 µM) | 0.5 (≈ 1.3 µM) | > 32 | 2 (≈ 5.22 µM) | > 8 | 93.5 | > 10000 | > 10000 | > 10000 | > 10000 | – | – | – | – | – | – | – | – | – | –
C[C@H]1COc2c(N3CCN(C)CC3)c(F)cc3c(=O)c(C(=O)O)cn1c23 [LEVOFLOXACIN ANHYDROUS] | – | 0.25 (≈ 0.692 µM) | – | – | – | ≤ 0.03 | – | – | – | – | – | – | 16 (≈ 44.3 µM) | 64 (≈ 177 µM) | 0.25 (≈ 0.692 µM) | 0.25 (≈ 0.692 µM) | 0.25 (≈ 0.692 µM) | 32 (≈ 88.6 µM) | 64 (≈ 177 µM) | 1 (≈ 2.77 µM) | MIC (Enterococcus faecalis [18]): 2 µg/mL (≈ 5.53 µM); MIC (Enterococcus): 1 µg/mL (≈ 2.77 µM); MIC (Escherichia coli [19]): 32 µg/mL (≈ 88.6 µM); MIC (Escherichia coli [20]): 8 µg/mL (≈ 22.1 µM); MIC (Acinetobacter baumannii [23]): 0.25 µg/mL; MIC (Acinetobacter baumannii [25]): ≤ 0.03 µg/mL
Nc1nc(N)c2c(ccc3c2ccn3Cc2nc3ccc(C(=O)O)cc3s2)n1 | 8 (≈ 20.5 µM) | > 8 | 0.5 (≈ 1.28 µM) | > 32 | > 8 | > 8 | 80.6 | 8120 | 890 | 1600 | 2190 | – | – | – | – | – | – | – | – | – | –
